{
  "source": "patent US11459387B2",
  "about": "“Anti-CD147 antibody” (DAIICHI SANKYO COMPANY, LIMITED, priority 2017, dated 2022)",
  "key": {"[1]": {"test_system": "human pancreatic line MIA PaCa-2", "experiment": "MIA PaCa-2 pancreatic xenograft model in NOD-scid mice, humanized antibodies", "assay_type": "in vivo", "conditions": "gemcitabine 400 mg/kg ip 7 and 14 days after the inoculation", "experimental": "5×10^6 cells of human pancreatic line MIA PaCa-2 were suspended in PBS containing 50% GFR-Matrigel (Corning Inc., Cat. 354230), and the suspension was inoculated subcutaneously into the axilla of 4 week-old female NOD-scid mice (NOD. CB17-Prkdc/J, purchased from CHARLES RIVER LABORATORIES JAPAN, INC). […] As a control drug, gemcitabine (purchased from Eli Lilly Japan K.K.) that is a standard therapeutic agent for pancreatic cancer was administered intraperitoneally to cancer-bearing mice at 400 mg/kg 7 and 14 days after the inoculation (n=5). The major axis and the minor axis of the inoculated tumor were measured twice a week using an electronic digital caliper (available from MITUTOYO CORPORATION) to calculate the tumor volume by the following formula."}, "[2]": {"test_system": "human pancreatic line BxPC-3", "experiment": "SMAD4-negative BxPC-3 pancreatic cancer-bearing model in BALB/c-nu mice", "assay_type": "in vivo", "conditions": "gemcitabine 200 mg/kg via the tail vein 8, 15, 22 days after the inoculation", "text": "The transcription factor, SMAD4, is known as one of the molecules important for activation of SMAD signaling (Zang, et al., Current Biology, 270-276, 1997). It is known that SMAD signaling is partially impaired due to genetic defects of SMAD4 in some pancreatic cancers (Hahn, et al., Science, 350-353, 1996). […] 2.5×10^6 cells of human pancreatic line BxPC-3 (ATCC, Cat. CRL-1687) were suspended in PBS containing […] (Corning Inc., Cat. 354234), and the suspension was inoculated subcutaneously into the axilla of 6 week-old female BALB/c-nu mouse (CAnN. Cg-Foxn1nu/CrlCrlj, purchased from CHARLES RIVER LABORATORIES JAPAN, INC). […] As a control drug, gemcitabine (Eli Lilly Japan K.K., Gemzar®) that is a therapeutic agent for pancreatic cancer was administered to mice bearing tumor via the tail vein at 200 mg/kg 8, 15, 22 days after the inoculation (n=5). The major axis and the minor axis of the inoculated tumor were measured twice a week using an electronic digital caliper (available from MITUTOYO CORPORATION) to calculate the tumor volume by the following formula. Tumor volume (mm^3)=½×minor axis (mm)×minor axis (mm)×major axis (mm)"}, "[3]": {"test_system": "gemcitabine-resistant MIA PaCa-2 tumors", "experiment": "Gemcitabine-resistant MIA PaCa-2 pancreatic cancer tumor model in NOD-scid mice", "assay_type": "in vivo, human", "text": "The antitumor efficacy of the CD147 antibody in a gemcitabine-resistant pancreatic cancer tumor model was investigated. 5×10^6 cells of human pancreatic line MIA PaCa-2 were suspended in PBS containing 50% GFR-Matrigel (Corning Inc., Cat. 354230), and the suspension was inoculated subcutaneously into the axilla of 5 week-old female NOD-scid mice (NOD. CB17-Prkdc/J, CHARLES RIVER LABORATORIES JAPAN, INC). Gemcitabine (Eli Lilly Japan K.K.), which is a standard therapeutic agent for pancreatic cancer, was intraperitoneally administered at 400 mg/kg 6 days after the inoculation, and grouping of mice in which gemcitabine-resistant tumors were confirmed to grow was performed based on tumor size one week later. Gemcitabine was intraperitoneally administered to the control group at 400 mg/kg (n=5) 13 days (grouping date) and 20 days after the inoculation. […] The major axis and the minor axis of the inoculated tumor were measured twice a week using an electronic digital caliper (available from MITUTOYO CORPORATION) to calculate the tumor volume by the following formula. […]"}, "[4]": {"test_system": "human pancreatic line MIA PaCa-2", "experiment": "MIA PaCa-2 model in Nude mice, humanized antibodies with different binding activities", "assay_type": "in vivo", "conditions": "gemcitabine 400 mg/kg via the tail vein 3 and 10 days after the inoculation", "experimental": "5×10^6 cells of human pancreatic line MIA PaCa-2 were suspended in PBS containing 50% GFR-Matrigel (Corning Inc., Cat. 354230), and the suspension was inoculated subcutaneously into the axilla of 4-week old female Nude mice (BALB/c Slc-nu/nu, purchased from Japan SLC, Inc). […] As a control drug, gemcitabine (purchased from Eli Lilly Japan K.K.), which is a standard therapeutic agent for pancreatic cancer, was administered to cancer-bearing mice via the tail vein at 400 mg/kg 3 and 10 days after the inoculation (n=6). The major axis and the minor axis of the inoculated tumor were measured twice a week using an electronic digital caliper (available from MITUTOYO CORPORATION) to calculate the tumor volume by the following formula. Tumor volume (mm^3)=½×minor axis (mm)×minor axis (mm)×major axis (mm)"}},
  "data": [
    {"molecule": "Nc1ccn([C@@H]2O[C@H](CO)[C@@H](O)C2(F)F)c(=O)n1", "note": "[gemcitabine, reference compound]", "values": [
      {"measurement": "tumor disappearance (in words)", "setting": "[1]", "result": "no tumor disappearance was recognized"},
      {"measurement": "tumor growth inhibition rate", "setting": "[1]; NOD-scid mice", "result": 71, "unit": "%"},
      {"measurement": "sensitivity of BxPC-3 tumor (in words)", "setting": "[2]", "result": "resistant"},
      {"measurement": "average tumor size", "setting": "[3]; gemcitabine 400 mg/kg ip 6, 13 and 20 days after the inoculation, 28 days after the inoculation", "result": 1269, "unit": "mm^3"},
      {"measurement": "regressing tumors (in words)", "setting": "[3]; gemcitabine 400 mg/kg ip alone", "result": "no regressing tumors were observed"},
      {"measurement": "tumor growth inhibition rate", "setting": "[4]", "result": 66, "unit": "%"}
    ]}
  ]
}
